In patent publication US20200078468A1, “NEUROTENSIN RECEPTOR BINDING CONJUGATES AND FORMULATIONS THEREOF” (priority 2016, published 2020):
Square brackets hold non-standard residues; d marks the D form. Peptide text beside a SMILES is read from it. * marks the point of attachment. X3 = COc1cccc2c1C(=O)c1c(O)c3c(c(O)c1C2=O)C[C@@](O)(C(=O)CO)C[C@@H]3O[C@H]1C[C@H](NC(=O)OCCS*)[C@H](O)[C@H](C)O1; Pen = CC(C)(S)[C@H](N)C(=O)O; Tle = CC(C)(C)[C@H](N)C(=O)O

Tests used:
human NTSR1 = target: T1, human NTSR1 (Homo sapiens, UniProt P30989); assay: radioligand-receptor binding assay, [125I] labeled neurotensin (Eurofins Panlabs); conditions: [125I] neurotensin 0.02 nM, membranes from NTSR1 expressing HEK-293 cells, 45 minute incubation, Cheng and Prusoff; read-out: NTSR1 binding Ki
T1 construct: host or cells: HEK-293 cells (membrane preparations)
T1 sequence (P30989 whole entry): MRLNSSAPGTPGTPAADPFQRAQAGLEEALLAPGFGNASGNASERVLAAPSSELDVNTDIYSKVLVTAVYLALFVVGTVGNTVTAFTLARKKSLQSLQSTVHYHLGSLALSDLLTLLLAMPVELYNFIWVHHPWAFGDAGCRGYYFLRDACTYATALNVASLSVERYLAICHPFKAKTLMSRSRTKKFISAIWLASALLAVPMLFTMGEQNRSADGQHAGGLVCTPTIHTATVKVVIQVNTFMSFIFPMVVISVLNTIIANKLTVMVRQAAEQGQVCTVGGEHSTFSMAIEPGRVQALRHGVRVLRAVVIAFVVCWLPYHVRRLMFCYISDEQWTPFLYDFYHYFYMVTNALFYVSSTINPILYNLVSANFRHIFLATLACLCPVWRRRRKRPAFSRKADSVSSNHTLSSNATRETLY
Experimental: Conjugates were assessed in an in vitro assay evaluating binding to NTSR1. A radioligand-receptor binding assay was conducted at Eurofins Panlabs (Taiwan) to determine the affinity of conjugates described herein to NTSR1. The assay measures binding of radiolabeled ligand, [^125I] labeled neurotensin, to human NTSR1 using membrane preparations from NTSR1 expressing HEK-293 cells (Human embryonic kidney cells 293). Membranes were incubated with radiolabeled neurotensin (0.02 nM) in the presence of conjugate/compound starting at a dose of either 100 nM, or 10 nM, using 3× serial dilutions to obtain a 6-pt curve. After a 45 minute incubation, membranes were filtered and washed 3× and counted to determine the remaining [^125I] neurotensin bound to the receptor. IC50 values were determined by a non-linear, least squares regression analysis using MathIQ™ (ID Business Solutions Ltd., UK). The Ki values were calculated using the equation of Cheng and Prusoff (Cheng and Prusoff, Biochem. Pharmacol. 22:3099-3108, 1973) using the observed IC50 of the tested conjugate/compound, the concentration of radioligand employed in the assay, and the historical values for the Kd of the ligand obtained at Eurofins.

[1] = system: SW48 (human colon cancer cells); assay: inhibition of SW48 cell proliferation (CellTiter Glo); assay type: cell-based; conditions: NTSR1 targeted compound; 72 hrs; read-out: SW-48 proliferation IC50
Procedure, shortened: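 Cells plated at 5,000/well and grown 24 hrs were exposed to conjugates for 72 hrs at 37° C, 5% CO2, in a ten-point three-fold series starting at 10 μM; vehicle was 0.01% DMSO. Proliferation was read by CellTiter Glo. % inhibition was taken relative to vehicle, with IC50 from four-parameter nonlinear regression.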

Row | SMILES | Ki (human NTSR1) [nM] | IC50 [1] [nM]
1 | COc1cc2cc(c1Cl)N(C)C(=O)C[C@H](OC(=O)[C@H](C)N(C)C(=O)CCSC1CC(=O)N(CCCNC(=O)CNC(=O)[C@H](CC(C)C)NC(=O)[C@H](Cc3ccccc3)NC(=O)CNC(=O)CCCCCN3C(=O)CC(SC(C)(C)[C@H](NC(C)=O)C(=O)N4CCC[C@H]4C(=O)N[C@@H](CCCCN)C(=O)N[C@@H](CCCNC(=N)N)C(=O)N4CCC[C@H]4C(=O)N[C@@H](Cc4ccc(O)cc4)C(=O)N[C@H](C(=O)N[C@@H](CC(C)C)C(=O)O)C(C)(C)C)C3=O)C1=O)[C@]1(C)O[C@H]1[C@H](C)[C@@H]1C[C@@](O)(NC(=O)O1)[C@H](OC)/C=C/C=C(\C)C2 (some centres unmarked) [Compound 21] | 4.65 | 0.49
2 | COc1cc2cc(c1Cl)N(C)C(=O)C[C@H](OC(=O)[C@H](C)N(C)C(=O)CCSC1CC(=O)N(CCCNC(=O)CNC(=O)[C@H](CC(C)C)NC(=O)[C@H](Cc3ccccc3)NC(=O)CNC(=O)CCCCCN3C(=O)CC(SC(C)(C)[C@H](NC(C)=O)C(=O)N4CCC[C@H]4C(=O)N[C@@H](CCCCN)C(=O)N(C)[C@@H](CCCNC(=N)N)C(=O)N4CCC[C@H]4C(=O)N[C@@H](Cc4ccc(O)cc4)C(=O)N[C@H](C(=O)N[C@@H](CC(C)C)C(=O)O)C(C)(C)C)C3=O)C1=O)[C@]1(C)O[C@H]1[C@H](C)[C@@H]1C[C@@](O)(NC(=O)O1)[C@H](OC)/C=C/C=C(\C)C2 (some centres unmarked) [Compound 22] | 12.6 | 0.53
3 | COc1cc2cc(c1Cl)N(C)C(=O)C[C@H](OC(=O)[C@H](C)N(C)C(=O)CCSC1CC(=O)N(CCCNC(=O)CNC(=O)[C@H](CC(C)C)NC(=O)[C@H](Cc3ccccc3)NC(=O)CNC(=O)CCC(=O)NCCCC[C@H](NC(=O)c3ccc(C(C)=O)cc3)C(=O)N3CCC[C@H]3C(=O)N(C)[C@@H](CCCNC(=N)N)C(=O)N[C@@H](CCCNC(=N)N)C(=O)N3CCC[C@H]3C(=O)N[C@@H](Cc3ccc(O)cc3)C(=O)N[C@H](C(=O)N[C@@H](CC(C)C)C(=O)O)C(C)(C)C)C1=O)[C@]1(C)O[C@H]1[C@H](C)[C@@H]1C[C@@](O)(NC(=O)O1)[C@H](OC)/C=C/C=C(\C)C2 (some centres unmarked) [Compound 28] | 0.67 | 5.9
4 | COc1cc2cc(c1Cl)N(C)C(=O)C[C@H](OC(=O)[C@H](C)N(C)C(=O)CCSC1CC(=O)N(CCCNC(=O)CNC(=O)[C@H](CC(C)C)NC(=O)[C@H](Cc3ccccc3)NC(=O)CNC(=O)CCCCCN3C(=O)CC(SCCC(=O)NCCCC[C@H](NC(C)=O)C(=O)N4CCC[C@H]4C(=O)N[C@H](CCCNC(=N)N)C(=O)N[C@@H](CCCNC(=N)N)C(=O)N4CCC[C@H]4C(=O)N[C@@H](Cc4ccc(O)cc4)C(=O)N[C@H](C(=O)N[C@@H](CC(C)C)C(=O)O)C(C)(C)C)C3=O)C1=O)[C@]1(C)O[C@H]1[C@H](C)[C@@H]1C[C@@](O)(NC(=O)O1)[C@H](OC)/C=C/C=C(\C)C2 (some centres unmarked) [Compound 29] | 1.77 | 22
5 | COc1cc2cc(c1Cl)N(C)C(=O)C[C@H](OC(=O)[C@H](C)N(C)C(=O)CCSC1CC(=O)N(CCCNC(=O)CNC(=O)[C@H](CC(C)C)NC(=O)[C@H](Cc3ccccc3)NC(=O)CNC(=O)CCCCCN3C(=O)CC(SCCC(=O)NCCCC[C@H](NC(C)=O)C(=O)N4CCC[C@H]4C(=O)N[C@H](CCCNC(=N)N)C(=O)N[C@@H](CCN)C(=O)N4CCC[C@H]4C(=O)N[C@@H](Cc4ccc(O)cc4)C(=O)N[C@H](C(=O)N[C@@H](CC(C)C)C(=O)O)C(C)(C)C)C3=O)C1=O)[C@]1(C)O[C@H]1[C@H](C)[C@@H]1C[C@@](O)(NC(=O)O1)[C@H](OC)/C=C/C=C(\C)C2 (some centres unmarked) [Compound 30] | 4.23 | 42.7
6 | COc1cc2cc(c1Cl)N(C)C(=O)C[C@H](OC(=O)[C@H](C)N(C)C(=O)CCSC1CC(=O)N(CCCNC(=O)CNC(=O)[C@H](CC(C)C)NC(=O)[C@H](Cc3ccccc3)NC(=O)CNC(=O)CCCCCN3C(=O)CC(SCCC(=O)NCCCC[C@H](NC(C)=O)C(=O)N4CCC[C@H]4C(=O)N[C@@H](CCCNC(=N)N)C(=O)N[C@@H](CCN)C(=O)N4CCC[C@H]4C(=O)N[C@@H](Cc4ccc(O)cc4)C(=O)N[C@H](C(=O)N[C@@H](CC(C)C)C(=O)O)C(C)(C)C)C3=O)C1=O)[C@]1(C)O[C@H]1[C@H](C)[C@@H]1C[C@@](O)(NC(=O)O1)[C@H](OC)/C=C/C=C(\C)C2 (some centres unmarked) [Compound 31] | 2.39 | 75.6
7 | COc1cc2cc(c1Cl)N(C)C(=O)C[C@H](OC(=O)[C@H](C)N(C)C(=O)CCSC1CC(=O)N(CCCNC(=O)CNC(=O)[C@H](CC(C)C)NC(=O)[C@H](Cc3ccccc3)NC(=O)CNC(=O)CCCCCN3C(=O)CC(SCCC(=O)NCCCC[C@H](NC(C)=O)C(=O)N4CCC[C@H]4C(=O)N[C@@H](CCCCN)C(=O)N[C@@H](CCN)C(=O)N4CCC[C@H]4C(=O)N[C@@H](Cc4ccc(O)cc4)C(=O)N[C@H](C(=O)N[C@@H](CC(C)C)C(=O)O)C(C)(C)C)C3=O)C1=O)[C@]1(C)O[C@H]1[C@H](C)[C@@H]1C[C@@](O)(NC(=O)O1)[C@H](OC)/C=C/C=C(\C)C2 (some centres unmarked) [Compound 32] | 5.03 | 70.8
8 | COc1cc2cc(c1Cl)N(C)C(=O)C[C@H](OC(=O)[C@H](C)N(C)C(=O)CCSC1CC(=O)N(CCCNC(=O)CNC(=O)[C@H](CC(C)C)NC(=O)[C@H](Cc3ccccc3)NC(=O)CNC(=O)CCCCCN3C(=O)CC(SCCC(=O)NCCCC[C@H](NC(C)=O)C(=O)N4CCC[C@H]4C(=O)N[C@@H](CCCCN)C(=O)N[C@@H](CCCNC(=N)N)C(=O)N4CCC[C@H]4C(=O)N[C@@H](Cc4ccc(O)cc4)C(=O)N[C@H](C(=O)N[C@@H](CC(C)C)C(=O)O)C(C)(C)C)C3=O)C1=O)[C@]1(C)O[C@H]1[C@H](C)[C@@H]1C[C@@](O)(NC(=O)O1)[C@H](OC)/C=C/C=C(\C)C2 (some centres unmarked) [Compound 33] | 2.32 | 105
9 | COc1cc2cc(c1Cl)N(C)C(=O)C[C@H](OC(=O)[C@H](C)N(C)C(=O)CCSC1CC(=O)N(CCCNC(=O)CNC(=O)[C@H](CC(C)C)NC(=O)[C@H](Cc3ccccc3)NC(=O)CNC(=O)CCCCCN3C(=O)CC(SCCC(=O)NCCCC[C@H](NC(C)=O)C(=O)N4CCC[C@H]4C(=O)N[C@H](CCCN)C(=O)N[C@@H](CCN)C(=O)N4CCC[C@H]4C(=O)N[C@@H](Cc4ccc(O)cc4)C(=O)N[C@H](C(=O)N[C@@H](CC(C)C)C(=O)O)C(C)(C)C)C3=O)C1=O)[C@]1(C)O[C@H]1[C@H](C)[C@@H]1C[C@@](O)(NC(=O)O1)[C@H](OC)/C=C/C=C(\C)C2 (some centres unmarked) [Compound 34] | 6.07 | 70.2
10 | COc1cc2cc(c1Cl)N(C)C(=O)C[C@H](OC(=O)[C@H](C)N(C)C(=O)CCSC1CC(=O)N(CCCNC(=O)CNC(=O)[C@H](CC(C)C)NC(=O)[C@H](Cc3ccccc3)NC(=O)CNC(=O)CCCCCN3C(=O)CC(SCCC(=O)NCCCC[C@H](NC(C)=O)C(=O)N4CCC[C@H]4C(=O)N[C@H](CCCN)C(=O)N[C@@H](CCCNC(=N)N)C(=O)N4CCC[C@H]4C(=O)N[C@@H](Cc4ccc(O)cc4)C(=O)N[C@H](C(=O)N[C@@H](CC(C)C)C(=O)O)C(C)(C)C)C3=O)C1=O)[C@]1(C)O[C@H]1[C@H](C)[C@@H]1C[C@@](O)(NC(=O)O1)[C@H](OC)/C=C/C=C(\C)C2 (some centres unmarked) [Compound 35] | 3.75 | 47.3
11 | COc1cc2cc(c1Cl)N(C)C(=O)C[C@H](OC(=O)[C@H](C)N(C)C(=O)CCSC1CC(=O)N(CCCNC(=O)CNC(=O)[C@H](CC(C)C)NC(=O)[C@H](Cc3ccccc3)NC(=O)CNC(=O)CCCCCN3C(=O)CC(SCCC(=O)NCCCC[C@H](NC(C)=O)C(=O)N4CCC[C@H]4C(=O)N[C@@H](CCCN)C(=O)N[C@@H](CCN)C(=O)N4CCC[C@H]4C(=O)N[C@@H](Cc4ccc(O)cc4)C(=O)N[C@H](C(=O)N[C@@H](CC(C)C)C(=O)O)C(C)(C)C)C3=O)C1=O)[C@]1(C)O[C@H]1[C@H](C)[C@@H]1C[C@@](O)(NC(=O)O1)[C@H](OC)/C=C/C=C(\C)C2 (some centres unmarked) [Compound 36] | 4.8 | 50
12 | COc1cc2cc(c1Cl)N(C)C(=O)C[C@H](OC(=O)[C@H](C)N(C)C(=O)CCSC1CC(=O)N(CCCNC(=O)CNC(=O)[C@H](CC(C)C)NC(=O)[C@H](Cc3ccccc3)NC(=O)CNC(=O)CCCCCN3C(=O)CC(SCCC(=O)NCCCC[C@H](NC(C)=O)C(=O)N4CCC[C@H]4C(=O)N[C@@H](CCCN)C(=O)N[C@@H](CCCNC(=N)N)C(=O)N4CCC[C@H]4C(=O)N[C@@H](Cc4ccc(O)cc4)C(=O)N[C@H](C(=O)N[C@@H](CC(C)C)C(=O)O)C(C)(C)C)C3=O)C1=O)[C@]1(C)O[C@H]1[C@H](C)[C@@H]1C[C@@](O)(NC(=O)O1)[C@H](OC)/C=C/C=C(\C)C2 (some centres unmarked) [Compound 37] | 2.35 | 51.6
13 | COc1cccc2c1C(=O)c1c(O)c3c(c(O)c1C2=O)C[C@@](O)(C(=O)CO)C[C@@H]3O[C@H]1C[C@H](NC(=O)OCCSSC(C)(C)[C@H](NC(C)=O)C(=O)N2CCC[C@H]2C(=O)N[C@@H](CCCNC(=N)N)C(=O)N[C@@H](CCCNC(=N)N)C(=O)N2CCC[C@H]2C(=O)N[C@@H](Cc2ccc(O)cc2)C(=O)N[C@H](C(=O)N[C@@H](CC(C)C)C(=O)O)C(C)(C)C)[C@H](O)[C@H](C)O1 [Compound 51] (Ac-[Pen](X3)PRRPY[Tle]L-OH) | 1.34 | 1600
